According to patent US8628938B2, “Polynucleotide encoding UDP-glucuronyl transferase” (Suntory Holdings Limited, priority 2007, dated 2014):

Legend:
[1] = test system: S1UGT; experiment: UDP-glucuronosyltransferase activity assay (HPLC) with recombinant S1UGT; assay type: biochemical, Scutellaria laeteviolacea v. yakusimensis; details: for glucuronosyl transfer activity to glycosyl acceptor substrate (in words): standard reaction conditions; for relative activity to each substrate, taking the activity to scutellarein as 100%: 100 μM glycosyl acceptor substrate, 2 mM UDP-glucuronic acid, pH 7.5, 30° C., 30 minutes
Experimental: (§1) Escherichia coli BL21 (DE3) was transformed with each plasmid obtained in 4-(1) above. The transformant obtained was shake cultured overnight at 37° C. in 4 ml of LB medium (10 g/l tryptone, 5 g/l yeast extract, 1 g/l NaCl) supplemented with 50 μg/ml of ampicillin. The culture broth, 4 ml, which reached the stationary phase, was inoculated into 80 ml of the medium with the same composition, followed by shake culture at 37° C. When the cell turbidity (OD600) reached approximately 0.5, 0.4 mM IPTG (isopropyl-β-thiogalactopyranoside) in a final concentration was added to the medium, followed by shake culture at 22° C. for 20 hours. All of the subsequent procedures were performed at 4° C. The transformants cultured were centrifuged (7,000×g, 15 mins.) to collect the cells, and 2 ml/g cell of Buffer S (20 mM sodium phosphate buffer (pH 7.4), 20 mM imidazole, 0.5 M NaCl, 14 mM β-mercaptoethanol) was added to the cells for suspension. Subsequently, ultrasonication was performed (15 secs.×8) followed by centrifugation (15,000×g, 10 mins.). To the supernatant obtained, 0.12% (w/v) polyethyleneimine in a final concentration was added to […], which was then allowed to stand for 30 minutes. The mixture was centrifuged (15,000×g, 10 mins.) and the supernatant was recovered as a crude enzyme solution. The crude enzyme solution was applied to His SpinTrap (GE Healthcare), which had been equilibrated with Buffer S, and centrifuged (70×g, 30 secs.). After washing with 600 μl of Buffer S, the protein bound to the column was stepwise eluted with 600 μl each of Buffer S containing 100, 200 and 500 mM imidazole. The buffer in each fraction eluted was replaced by 20 mM potassium phosphate buffer (pH 7.5) containing 14 mM β-mercaptoethanol, using Microcon YM-30 (Amicon). […] These fractions were mixed and used for analysis.
(§2) Standard reaction conditions are as follows. A reaction solution (2 mM UDP-glucuronic acid, 100 μM glycosyl acceptor substrate, 50 mM potassium phosphate buffer (pH 7.5), enzyme solution), 50 μl, was prepared and the enzyme solution was added to initiate the reaction at 30° C. for 30 minutes. The reaction was stopped by adding 50 μl of 0.5% TFA in CH3CN and provided for HPLC analysis. The conditions for HPLC are as follows: column, Develosil C30-UG-5 (4.6×150 mm); eluant A, 0.1% TFA/H2O; eluant B, 0.08% TFA/90% CH3CN; conditions A for elution (except for aurone, catechin, coumarine and phenylpropanoid), 0 min/5% B→18 min/100% eluant B'18.1 min/5% B→25 min/5% B; conditions B for elution (aurone, catechin, coumarine and phenylpropanoid), 0 min/5% B→20 min/50% eluant B→20.5 min/5% B→25 min/5% B; flow rate, 1 ml/min; detection wavelength: 280 and 350 nm.

[2] = test system: PfUGT50; experiment: UDP-glucuronosyltransferase activity assay (HPLC) with recombinant PfUGT50; assay type: biochemical, Perilla frutescens; details: for glucuronosyl transfer activity to glycosyl acceptor substrate (in words): standard reaction conditions; for relative activity to each substrate, taking the activity to scutellarein as 100%: 100 μM glycosyl acceptor substrate, 2 mM UDP-glucuronic acid, pH 7.5, 30° C., 30 minutes
Experimental: as §1, §2

[3] = test system: AmUGTcg10; experiment: UDP-glucuronosyltransferase activity assay (HPLC) with recombinant AmUGTcg10; assay type: biochemical, Antirrhinum majus; details: for relative activity to each substrate, taking the activity to scutellarein as 100%: 100 μM glycosyl acceptor substrate, 2 mM UDP-glucuronic acid, pH 7.5, 30° C., 30 minutes; for glucuronosyl transfer activity to glycosyl acceptor substrate (in words): standard reaction conditions
Experimental: as §1, §2

[4] = test system: SiUGT23; experiment: UDP-glucuronosyltransferase activity assay (HPLC) with recombinant SiUGT23; assay type: biochemical, Sesamum indicum; details: for relative activity to each substrate, taking the activity to scutellarein as 100%: 100 μM glycosyl acceptor substrate, 2 mM UDP-glucuronic acid, pH 7.5, 30° C., 30 minutes; for glucuronosyl transfer activity to glycosyl acceptor substrate (in words): standard reaction conditions
Experimental: as §2
cDNA containing full-length ORF of SiUGT23 derived from Sesamum indicum was amplified by a gene-specific primer set (SEQ ID NOs: 24 and 25). cDNA synthesized using total RNA extracted from sesame seeds was used as a template. SiUGT23 was incorporated into Escherichia coli expression vector as in UGT of Perilla frutescens, Scutellaria laeteviolacea v. yakusimensis and Antirrhinum majus in EXAMPLE 1 and recombinant SiUGT23 protein was expressed in the same way to assay the enzyme activity.

[5] = apigenin as glycosyl acceptor substrate

Row | Molecule | glucuronosyl transfer activity to glycosyl acceptor substrate (in words) [1] | glucuronosyl transfer activity to glycosyl acceptor substrate (in words) [2] | relative activity to each substrate, taking the activity to scutellarein as 100% [4] | relative activity to each substrate, taking the activity to scutellarein as 100% [2] | glucuronosyl transfer activity to glycosyl acceptor substrate (in words) [4] | relative activity to each substrate, taking the activity to scutellarein as 100% [1] | glucuronosyl transfer activity to glycosyl acceptor substrate (in words) [3] | further results
1 | Oc1ccc(C2OCC3C(c4ccc(O)c(O)c4)OCC23)cc1O (single isomer, unassigned; (+)) [EC2, (+)-episesamin catechol 2] | shows the activity |  |  |  |  |  |  | 
2 | Oc1ccc([C@H]2OC[C@H]3[C@@H]2CO[C@@H]3c2ccc3c(c2)OCO3)cc1O [SC1, (+)-sesamin catechol 1] | shows the activity | shows the activity |  |  |  |  |  | 
3 | Oc1ccc([C@H]2OC[C@H]3[C@@H]2CO[C@@H]3c2ccc(O)c(O)c2)cc1O [SC2, (+)-sesamin catechol 2] | shows the activity |  |  |  |  |  |  | 
4 | O=C(O)[C@H]1O[C@H](OP(=O)(O)OP(=O)(O)OC[C@H]2O[C@@H](n3ccc(=O)[nH]c3=O)[C@H](O)[C@@H]2O)[C@H](O)[C@@H](O)[C@@H]1O [UDP-glucuronic acid] |  |  |  |  |  |  |  | activity to UDP-activated glycosyl donor [3, 5]: showed the activity; activity to UDP-activated glycosyl donor [2, 5]: showed the activity; activity to UDP-activated glycosyl donor [1, 5]: showed the activity
5 | O=C1/C(=C/c2ccc(O)c(O)c2)Oc2cc(O)cc(O)c21 [aureusidin] | no activity |  | 13% | 40% |  |  |  | relative activity to each substrate, taking the activity to scutellarein as 100% [3]: 2%
6 | O=C(O)/C=C/c1ccc(O)c(O)c1 [caffeic acid] |  |  |  |  | no activity |  |  | 
7 | COc1cc(-c2cc(=O)c3c(O)cc(O)cc3o2)ccc1O [chrysoeriol] |  |  | 6% | 18% |  | 0.02% |  | relative activity to each substrate, taking the activity to scutellarein as 100% [3]: 18%
8 | COc1cc(/C=C/CO)ccc1O [coniferyl alcohol] | no activity | no activity |  |  |  |  | no activity | 
9 | O=c1c(-c2ccc(O)cc2)coc2cc(O)ccc12 [daidzein] |  | no activity |  |  | no activity | 0.3% | no activity | 
10 | COc1ccc(-c2cc(=O)c3c(O)cc(O)cc3o2)cc1O [diosmetin] |  |  | 4% | 62% |  | 0.3% |  | relative activity to each substrate, taking the activity to scutellarein as 100% [3]: 26%
11 | O=C(O[C@@H]1Cc2c(O)cc(O)cc2O[C@@H]1c1cc(O)c(O)c(O)c1)c1cc(O)c(O)c(O)c1 [epigallocatechin gallate] | no activity | no activity |  |  | no activity |  | no activity | 
12 | O=c1ccc2cc(O)c(O)cc2o1 [esculetin] |  | no activity | 0.03% |  |  | 0.3% | no activity | 
13 | O=c1c(-c2ccc(O)cc2)coc2cc(O)cc(O)c12 [genistein] |  | no activity |  |  | no activity | 1% | no activity | 
14 | O=c1cc(-c2ccc(O)cc2)oc2cc(O)c([C@@H]3O[C@H](CO)[C@@H](O)[C@H](O)[C@H]3O)c(O)c12 [isovitexin] | no activity | no activity | 0.3% |  |  |  | no activity | 
15 | O=c1c(O)c(-c2ccc(O)cc2)oc2cc(O)cc(O)c12 [kaempferol] |  |  | 18% | 3% |  | 14% |  | relative activity to each substrate, taking the activity to scutellarein as 100% [3]: 28%
16 | O=c1c(O)c(-c2cc(O)c(O)c(O)c2)oc2cc(O)cc(O)c12 [myricetin] | shows the activity |  |  | 9% |  |  |  | 
17 | O=C1C[C@@H](c2ccc(O)cc2)Oc2cc(O)cc(O)c21 [naringenin] |  |  | 2% | 3% |  | 6% |  | relative activity to each substrate, taking the activity to scutellarein as 100% [3]: 15%
18 | O=c1cc(-c2ccc(O)c(O)c2)oc2c([C@@H]3O[C@H](CO)[C@@H](O)[C@H](O)[C@H]3O)c(O)cc(O)c12 [orientin] | no activity | no activity |  |  | no activity |  | no activity | 
19 | Oc1ccc(C=Cc2cc(O)cc(O)c2)cc1 [resveratrol] | shows the activity | shows the activity |  |  | shows the activity |  | shows the activity | 
20 | O=c1cc(-c2cc(O)c(O)c(O)c2)oc2cc(O)cc(O)c12 [tricetin] |  |  | 14.0% | 87.9% |  | 1.1% |  | relative activity to each substrate, taking the activity to scutellarein as 100% [3]: 23.8%
21 | catechin | no activity | no activity |  |  | no activity |  | no activity | 
